Results as given in ChEMBL document CHEMBL4823324, “Discovery of BMS-986318, a Potent Nonbile Acid FXR Agonist for the Treatment of Nonalcoholic Steatohepatitis” (ACS Med Chem Lett, 2021).

What was measured:
[1] = Metabolic stability in human liver microsomes assessed as half life; format: ADME, Microsome
Cytochrome P450 2C8 = biological target: T1, Cytochrome P450 2C8 (Homo sapiens, UniProt P10632); test: Inhibition of CYP2C8 (unknown origin) expressed in baculovirus infected insect supersomes preincubated for 15 mins followed by addition of NADPH regenerating system and measured after 2 hrs by fluorescence based analysis; format: ADME
T1 sequence (P10632 whole entry): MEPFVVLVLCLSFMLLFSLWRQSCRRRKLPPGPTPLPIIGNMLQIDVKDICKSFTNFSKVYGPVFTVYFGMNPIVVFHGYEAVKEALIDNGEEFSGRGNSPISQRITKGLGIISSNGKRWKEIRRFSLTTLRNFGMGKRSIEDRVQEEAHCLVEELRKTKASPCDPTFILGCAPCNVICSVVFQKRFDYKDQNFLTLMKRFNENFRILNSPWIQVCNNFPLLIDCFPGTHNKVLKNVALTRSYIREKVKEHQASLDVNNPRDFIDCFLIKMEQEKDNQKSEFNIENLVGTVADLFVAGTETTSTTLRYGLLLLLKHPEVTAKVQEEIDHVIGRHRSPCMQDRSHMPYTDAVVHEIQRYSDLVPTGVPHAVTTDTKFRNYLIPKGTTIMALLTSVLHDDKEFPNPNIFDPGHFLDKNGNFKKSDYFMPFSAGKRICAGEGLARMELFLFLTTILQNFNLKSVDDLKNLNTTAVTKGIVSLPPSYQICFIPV

[2] = Plasma concentration in mouse at 3 mg/kg, po measured after 6 hrs; format: ADME, organism-based
[3] = biological target: T2, Nuclear receptor ROR-gamma (Homo sapiens, UniProt P51449); test: Antagonist activity at human RORgammaT co-expressed with Gal4-luciferase reporter in human Jurkat cells incubated for 18 hrs by Steady-Glo luciferase reporter based luminescence analysis; format: cell-based
T2 sequence (P51449 whole entry): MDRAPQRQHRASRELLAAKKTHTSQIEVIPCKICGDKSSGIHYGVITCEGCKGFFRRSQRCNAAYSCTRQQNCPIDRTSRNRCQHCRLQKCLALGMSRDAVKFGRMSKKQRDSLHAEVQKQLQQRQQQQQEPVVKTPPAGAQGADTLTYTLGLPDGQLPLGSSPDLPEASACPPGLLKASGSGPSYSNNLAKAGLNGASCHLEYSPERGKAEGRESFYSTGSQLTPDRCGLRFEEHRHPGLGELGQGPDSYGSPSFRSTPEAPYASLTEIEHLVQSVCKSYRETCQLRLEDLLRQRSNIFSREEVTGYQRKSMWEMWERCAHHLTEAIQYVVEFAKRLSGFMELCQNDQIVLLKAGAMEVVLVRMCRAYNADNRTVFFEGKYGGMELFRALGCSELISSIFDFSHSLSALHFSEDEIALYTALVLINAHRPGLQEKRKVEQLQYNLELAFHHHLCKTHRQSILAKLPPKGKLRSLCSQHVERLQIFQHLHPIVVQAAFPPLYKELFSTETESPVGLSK

Glucocorticoid receptor = biological target: T3, Glucocorticoid receptor (Homo sapiens, UniProt P04150); test: Activation of glucocorticoid receptor (unknown origin) by fluorescence polarization based competition assay
T3 sequence (P04150 whole entry): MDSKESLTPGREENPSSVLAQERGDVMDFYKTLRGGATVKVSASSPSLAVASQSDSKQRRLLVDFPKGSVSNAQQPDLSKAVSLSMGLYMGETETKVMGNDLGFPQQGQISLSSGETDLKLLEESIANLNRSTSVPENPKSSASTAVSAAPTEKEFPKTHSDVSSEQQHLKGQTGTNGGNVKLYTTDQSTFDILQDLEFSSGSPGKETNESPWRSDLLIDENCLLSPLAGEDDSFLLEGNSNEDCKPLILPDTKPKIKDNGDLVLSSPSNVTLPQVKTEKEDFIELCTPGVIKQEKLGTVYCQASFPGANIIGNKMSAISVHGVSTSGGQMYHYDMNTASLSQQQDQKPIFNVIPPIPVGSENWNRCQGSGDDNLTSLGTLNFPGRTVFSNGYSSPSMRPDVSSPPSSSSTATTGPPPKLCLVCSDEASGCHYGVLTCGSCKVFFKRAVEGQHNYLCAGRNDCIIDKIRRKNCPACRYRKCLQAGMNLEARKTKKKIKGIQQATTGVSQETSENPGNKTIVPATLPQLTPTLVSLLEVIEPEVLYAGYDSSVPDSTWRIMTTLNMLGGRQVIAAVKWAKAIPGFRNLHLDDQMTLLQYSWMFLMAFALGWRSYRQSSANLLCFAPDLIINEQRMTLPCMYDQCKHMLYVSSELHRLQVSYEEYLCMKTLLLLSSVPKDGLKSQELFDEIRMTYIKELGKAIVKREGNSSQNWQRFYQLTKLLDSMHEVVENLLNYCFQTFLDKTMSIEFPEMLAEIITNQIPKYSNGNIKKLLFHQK

Progesterone receptor = biological target: T4, Progesterone receptor (Homo sapiens, UniProt P06401); test: Activation of progesterone receptor (unknown origin) by fluorescence polarization based competition assay
T4 sequence (P06401 whole entry): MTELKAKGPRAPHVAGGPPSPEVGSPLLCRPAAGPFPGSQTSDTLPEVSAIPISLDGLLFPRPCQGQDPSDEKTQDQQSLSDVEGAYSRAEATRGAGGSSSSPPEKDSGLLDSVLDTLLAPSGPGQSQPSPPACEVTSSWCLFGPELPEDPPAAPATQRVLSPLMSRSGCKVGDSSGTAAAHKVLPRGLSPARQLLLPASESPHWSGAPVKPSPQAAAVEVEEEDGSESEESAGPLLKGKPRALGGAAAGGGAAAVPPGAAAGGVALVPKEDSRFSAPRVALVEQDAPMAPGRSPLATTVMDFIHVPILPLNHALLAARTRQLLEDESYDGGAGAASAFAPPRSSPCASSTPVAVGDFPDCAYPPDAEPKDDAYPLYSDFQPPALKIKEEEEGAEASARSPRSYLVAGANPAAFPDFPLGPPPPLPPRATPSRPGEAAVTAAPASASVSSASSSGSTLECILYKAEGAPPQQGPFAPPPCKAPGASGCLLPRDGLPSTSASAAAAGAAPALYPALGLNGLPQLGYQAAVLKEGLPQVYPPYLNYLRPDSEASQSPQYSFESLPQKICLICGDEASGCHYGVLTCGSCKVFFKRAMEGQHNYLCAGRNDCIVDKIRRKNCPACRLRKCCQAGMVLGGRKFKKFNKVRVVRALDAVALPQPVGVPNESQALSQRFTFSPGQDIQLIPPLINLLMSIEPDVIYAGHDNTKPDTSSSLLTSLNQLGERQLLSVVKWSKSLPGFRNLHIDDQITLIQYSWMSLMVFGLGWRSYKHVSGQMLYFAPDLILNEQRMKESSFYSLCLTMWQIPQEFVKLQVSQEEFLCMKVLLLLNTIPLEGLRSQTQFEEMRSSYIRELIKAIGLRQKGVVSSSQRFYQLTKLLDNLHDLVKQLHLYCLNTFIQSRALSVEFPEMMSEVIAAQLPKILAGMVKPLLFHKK

[4] = Cmax in C57B6 mouse at 2 mg/kg, po administered as solution; format: ADME, organism-based; design: route oral, dose 2 mg/kg; details: in vivo
[5] = Volume of distribution at steady state in C57B6 mouse at 1 mg/kg, iv; format: ADME, organism-based; details: in vivo, read-out: Vdss
[6] = Clearance in C57B6 mouse at 1 mg/kg, iv; format: ADME, organism-based; details: in vivo

## O=C(O)c1cc(C(F)(F)F)c2cc(N3CCC4(C=C(c5c(-c6c(Cl)cncc6Cl)noc5C5CC5)C4)CC3)ccc2n1
[1]
  half-life: > 2 h
Cytochrome P450 2C8
  IC50: 4.2 µM
[2]
  concentration at 6 h: 0.037 µM
[3]
  IC50: > 40 µM
Glucocorticoid receptor
  EC50: > 40 µM
Progesterone receptor
  EC50: > 40 µM
[4]
  Cmax: 1.22 µM
[5]
  Vd: 0.56 L/kg
[6]
  clearance: 0.228 L/h/kg
